Measured values as given in US20230083973A1, “SUBSTITUTED CYCLOPROPYL-2,2'-BIP[…], ANALOGUES THEREOF, AND METHODS USING SAME” (priority 2019, published 2023).

Each compound was assayed on HBsAg (assay: HBsAg assay: inhibition of HBsAg in HepG2.2.15 cells (chemiluminescence immunoassay of supernatant)). Conditions: Hepatitis B virus, HepG2.2.15, 144 h, read-out: sAg EC50, HepG2.2.15 cells; HBsAg in supernatant at day 6 after exposure to compound; 0.5% DMSO.
Assay type: cell-based, hepatitis B virus
How it was run: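 HepG2.2.15 cells treated with serially diluted compounds (0.5% DMSO), medium and compound refreshed after 2–3 days, supernatant harvested at day 6. Secreted HBsAg measured by chemiluminescence immunoassay; EC50 from dose-response curves, with parallel CellTiter-Glo viability at 5,000 cells/well.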
For `COCCCn1ncc2c([C@@H]3C[C@H]3c3cnc(-c4ncccn4)nc3)ccc(F)c21` (relative stereo) [Example 276, trans-4-(2-([2,2′-Bipyrimidin]-5-yl)cyclopropyl)-7-fluoro-1-(3-methoxypropyl)-1H-indazole], the EC50 was 10 nM. In the case of `COc1ccc(C2CN(c3cc([C@@H]4C[C@H]4c4cnc(-c5ncccn5)nc4)cc(F)c3F)C2)cc1OC` (relative stereo) [Example 216, trans-5-(2-(3-(3-(3,4-Dimethoxyphenyl)azetidin-1-yl)-4,5-difluorophenyl)cyclopropyl)-2,2′-bipyrimidine], the EC50 is reported as 25 nM. For `COc1ccc(C2CC2c2cnc(-c3ncccn3)nc2)cc1F` (single isomer, unassigned) [Example 12, trans-5-(2-(3-Fluoro-4-methoxyphenyl)cyclopropyl)-2,2′-bipyrimidine], the EC50 was 110 nM. In the case of `Fc1cc([C@@H]2C[C@H]2c2cnc(-c3ncccn3)nc2)cc2ccccc12` (relative stereo) [Example 169, trans-5-(2-(4-Fluoronaphthalen-2-yl)cyclopropyl)-2,2′-bipyrimidine], the EC50 is reported as 36 nM. With `COc1ccc([C@@H]2C[C@H]2c2cnc(-c3ncccn3)nc2)c2cccnc12` (relative stereo) [Example 173, trans-5-(2-([2,2′-Bipyrimidin]-5-yl)cyclopropyl)-8-methoxyquinoline] the EC50 was 540 nM. For `Fc1cc([C@@H]2C[C@H]2c2cnc(-c3ncccn3)nc2)cc(F)c1F` (relative stereo) [Example 160, trans-5-(2-(3,4,5-Trifluorophenyl)cyclopropyl)-2,2′-bipyrimidine], the EC50 was 270 nM. Compound `COc1cc(C2CC2c2cnc(-c3ncccn3)nc2)c(F)cc1Cl` (single isomer, unassigned) [Example 86, trans-5-(2-(4-Chloro-2-fluoro-5-methoxyphenyl)cyclopropyl)-2,2′-bipyrimidine] has an EC50 of 130 nM. For `COCCCn1cnc2cc([C@@H]3C[C@H]3c3cnc(-c4ncccn4)nc3)cc(F)c21` (relative stereo) [Example 273, trans-5-(2-([2,2′-Bipyrimidin]-5-yl)cyclopropyl)-7-fluoro-1-(3-methoxypropyl)-1H-benzo[d]imidazole], the EC50 was 43 nM.

Same assay, conditions: read-out: sAg EC50; HepG2.2.15 cells; HBsAg in supernatant at day 6 after exposure to compound; 0.5% DMSO
`COc1cc(C2CC2c2ccc(-c3ncccn3)nn2)ccc1F` (single isomer, unassigned) [Example 191, trans-3-(2-(4-Fluoro-3-methoxyphenyl)cyclopropyl)-6-(pyrimidin-2-yl)pyridazine] was tested, and the EC50 was 2000 nM. For `COCCOc1cc(C2CC2c2cnc(-c3ncccn3)nc2)cc(F)c1F` (single isomer, unassigned) [Example 135, trans-5-(2-(3,4-Difluoro-5-(2-methoxyethoxy)phenyl)cyclopropyl)-2,2′-bipyrimidine], the EC50 was 22 nM. In the case of `Fc1ccc(C2CC2c2cnc(-c3ncccn3)nc2)cc1N1CCCCC1` (single isomer, unassigned) [Example 195, trans-5-(2-(4-Fluoro-3-(piperidin-1-yl)phenyl)cyclopropyl)-2,2′-bipyrimidine], the EC50 is reported as 3000 nM. Work on `Fc1cc(C2CC2c2cnc(-c3ncccn3)nc2)cc(O[C@H]2CCOC2)c1F` (single isomer, unassigned) [Example 250] yielded an EC50 of 76 nM. Compound `Fc1c(Cl)cc(C2CC2c2cnc(-c3ncccn3)nc2)cc1N1CCCC1` (single isomer, unassigned) [Example 108, trans-5-(2-(3-Chloro-4-fluoro-5-(pyrrolidin-1-yl)phenyl)cyclopropyl)-2,2′-bipyrimidine] has an EC50 of 78 nM. Compound `O[C@H]1CCN(c2cc(C3CC3c3cnc(-c4ncccn4)nc3)ccc2F)C1` (single isomer, unassigned) [Example 65] has an EC50 of 580 nM. `CC1(C)CCN(c2cc(C3CC3c3cnc(-c4ncccn4)nc3)cc(F)c2F)C1` (single isomer, unassigned) [Example 220, trans-5-(2-(3-(3,3-Dimethylpyrrolidin-1-yl)-4,5-difluorophenyl)cyclopropyl)-2,2′-bipyrimidine] showed an EC50 of 30 nM. `CCc1cc(F)c(OC)cc1C1CC1c1cnc(-c2ncccn2)nc1` (single isomer, unassigned) [Example 36, trans-5-(2-(2-Ethyl-4-fluoro-5-methoxyphenyl)cyclopropyl)-2,2′-bipyrimidine] showed an EC50 of 720 nM. `COc1cc(C2CC2c2cnc(-c3ncccn3)nc2C2CCCCC2)ccc1F` (single isomer, unassigned) [Example 79, trans-4-Cyclohexyl-5-(2-(4-fluoro-3-methoxyphenyl)cyclopropyl)-2,2′-bipyrimidine] was tested, and the EC50 was 220 nM. Work on `COc1c(Cl)ccc(C2CC2c2cnc(-c3ncccn3)nc2)c1F` (single isomer, unassigned) [Example 56, trans-5-(2-(4-Chloro-2-fluoro-3-methoxyphenyl)cyclopropyl)-2,2′-bipyrimidine] yielded an EC50 of 470 nM. `Cc1c(C2CC2c2cnc(-c3ncccn3)nc2)ccc(Cl)c1OCC1CC1` (single isomer, unassigned) [Example 61, trans-5-(2-(4-Chloro-3-(cyclopropylmethoxy)-2-methylphenyl)cyclopropyl)-2,2′-bipyrimidine] gave an EC50 of 430 nM. For `Fc1cc(C2CC2c2cnc(-c3ncccn3)nc2)cc(NC2CCCC2)c1F` (single isomer, unassigned) [Example 207, trans-5-(2-([2,2′-Bipyrimidin]-5-yl)cyclopropyl)-N-cyclopentyl-2,3-difluoroaniline], the EC50 was 750 nM. Work on `COc1cc(C2CC2c2cnc(-c3ncccn3)nc2)cc(Cl)c1Cl` (single isomer, unassigned) [Example 60, trans-5-(2-(3,4-Dichloro-5-methoxyphenyl)cyclopropyl)-2,2′-bipyrimidine] yielded an EC50 of 250 nM. `CN1CC[C@H](Nc2cc(C3CC3c3cnc(-c4ncccn4)nc3)cc(F)c2F)C1` (single isomer, unassigned) [Example 229] gave an EC50 of 3000 nM. With `COc1cc(C2CC2c2cnc(-c3ncccn3)nc2)cc(C)c1Cl` (single isomer, unassigned) [Example 57, trans-5-(2-(4-Chloro-3-methoxy-5-methylphenyl)cyclopropyl)-2,2′-bipyrimidine] the EC50 was 63 nM. Work on `COC1CN(c2cc([C@@H]3C[C@H]3c3cnc(-c4ncccn4)nc3)cc(F)c2F)C1` (single isomer, unassigned) [Example 122, trans-5-(2-(3,4-difluoro-5-(3-methoxyazetidin-1-yl)phenyl)cyclopropyl)-2,2′-bipyrimidine] yielded an EC50 of 61 nM. `COCCCOc1cc(C2CC2c2cnc(-c3ncccn3)nc2)cc(F)c1F` (single isomer, unassigned) [Example 131, trans-5-(2-(3,4-Difluoro-5-(3-methoxypropoxy)phenyl)cyclopropyl)-2,2′-bipyrimidine] gave an EC50 of 15 nM. In the case of `O[C@H]1CCN(c2cc(C3CC3c3cnc(-c4ncccn4)nc3)cc(Cl)c2F)C1` (single isomer, unassigned) [Example 121], the EC50 is reported as 11 nM. For `Fc1cc(C2CC2c2cnc(-c3ncccn3)nc2)cc(-n2ccnc2)c1F` (single isomer, unassigned) [Example 182, trans-5-(2-(3,4-Difluoro-5-(1H-imidazol-1-yl)phenyl)cyclopropyl)-2,2′-bipyrimidine], the EC50 was 64 nM. Compound `COc1c(Cl)ccc(C2CC2c2cnc(-c3ncccn3)nc2)c1C` (single isomer, unassigned) [Example 72, trans-5-(2-(4-Chloro-3-methoxy-2-methylphenyl)cyclopropyl)-2,2′-bipyrimidine] has an EC50 of 89 nM.
